Experimental data: patent US8916502B2, “Agent for improving lawn grass qualities” (Cosmo Oil Co., Ltd., priority 2008, dated 2014)

Key:
Zoysia tenuifolia = assay: Foliage treatment of Zoysia tenuifolia sod in pots: grass height and dry weight of shoots and stems; format: in vivo; conditions: foliage treatment 150 L/10 a; for Grass height: 26 days after treatment; for Dry weight of stems: harvested 4 months after treatment
Protocol: A commercially available Zoysia tenuifolia sod was cut to a size of 10×10 cm. Uniform volcanic ash soil (andosol) was introduced into a vessel (1/44,444×10 a) in a sufficient amount per pot, and a chemical fertilizer (N—P—K=8-8-8) was applied thereon in an amount, in terms of nitrogen, of 2.6 kg-N/10 a. The cut Zoysia tenuifolia sod was transplanted into the pot. […] The grass height was measured 26 days after the treatment, and thereby the dwarfing effect was investigated.

bentgrass = assay: Foliage treatment of bentgrass sod in pots: leaf count and L*a*b* colour; format: in vivo; conditions: 30 days after treatment, 5-aminolevulinic acid hydrochloride 200 mg/10 a and/or prohexadione calcium salt 12.5 g/10 a; for Color system L* / Color system b* / Color system a*: colorimeter; for Color system a*: more negative = greener; for Plant count of lawn grass: foliage treatment 150 L/10 a
Description: A commercially available bentgrass sod was cut into a circular form having a diameter of 10 cm. Uniform volcanic ash soil (andosol) was introduced into a vessel (1/17,500×10 a) in a sufficient amount per pot, and a liquid fertilizer (Hyponica) was applied thereon in an amount, in terms of nitrogen, of 3 kg-N/10 a. The cut bentgrass sod was transplanted into the pot.

[1] = 5-aminolevulinic acid hydrochloride 600 mg/10 a and/or paclobutrazol 36 g/10 a
[2] = 5-aminolevulinic acid hydrochloride 600 mg/10 a and/or flurprimidol 84 g/10 a
[3] = 5-aminolevulinic acid hydrochloride 600 mg/10 a and/or prohexadione calcium salt 20 g/10 a
[4] = 5-aminolevulinic acid hydrochloride 600 mg/10 a and/or trinexapac-ethyl 20 g/10 a

CC(C)(C)[C@@H](O)[C@@H](Cc1ccc(Cl)cc1)n1cncn1 (racemic) [paclobutrazol, (2RS,3RS)-1-(4-chlorophenyl)-4,4-dimethyl-2-(1H-1,2,4-triazol-1-yl)pentan-3-ol] was tested, and the “Dry weight of shoots” value (Zoysia tenuifolia; [1]) was 0.81 g, the Grass height (Zoysia tenuifolia; [1]) was 3.5 cm and the “Dry weight of stems” value (Zoysia tenuifolia; [1]) was 14.8 g.
In the case of Cl.NCC(=O)CCC(=O)O [5-aminolevulinic acid hydrochloride], the “Dry weight of shoots” value (Zoysia tenuifolia; [2]) is reported as 0.90 g, the “Dry weight of shoots” value (Zoysia tenuifolia; [1]) is reported as 0.90 g and the “Dry weight of shoots” value (Zoysia tenuifolia; [3]) is reported as 0.90 g. For the same compound, the “Dry weight of shoots” value (Zoysia tenuifolia; [4]) was 0.90 g, the Grass height (Zoysia tenuifolia; [2]) was 4.2 cm and the Grass height (Zoysia tenuifolia; [1]) was 4.2 cm. The Grass height (Zoysia tenuifolia; [3]) was 4.2 cm, the Grass height (Zoysia tenuifolia; [4]) was 4.2 cm and the “Dry weight of stems” value (Zoysia tenuifolia; [2]) was 12.0 g. For the same compound, the “Dry weight of stems” value (Zoysia tenuifolia; [1]) was 12.0 g, the “Dry weight of stems” value (Zoysia tenuifolia; [3]) was 12.0 g and the “Dry weight of stems” value (Zoysia tenuifolia; [4]) was 12.0 g. For the same compound, the “Color system L*” value (bentgrass) was 34.0, the “Color system b*” value (bentgrass) was 17.6 and the “Color system a*” value (bentgrass) was −8.8. The “Plant count of lawn grass” value (bentgrass) was 54.2 plants/9 cm^2.
CCC(=O)C1=C([O-])CC(C(=O)[O-])CC1=O.[Ca+2] (centres unmarked) [Prohexadione calcium salt, calcium 3-oxido-5-oxo-4-propionyl-3-cyclohexene carboxylate] was tested, and the “Dry weight of shoots” value (Zoysia tenuifolia; [3]) was 0.72 g, the Grass height (Zoysia tenuifolia; [3]) was 3.5 cm and the “Dry weight of stems” value (Zoysia tenuifolia; [3]) was 11.3 g. For the same compound, the “Color system L*” value (bentgrass) was 33.2, the “Color system b*” value (bentgrass) was 17.0 and the “Color system a*” value (bentgrass) was −8.9. For the same compound, the “Plant count of lawn grass” value (bentgrass) was 65.5 plants/9 cm^2.
With CCOC(=O)C1CC(=O)C(=C(O)C2CC2)C(=O)C1 (stereo not drawn) [Trinexapac-ethyl, ethyl=4-cyclopropyl-α-hydroxymethylene)-3,5-dioxocyclohexane carboxylate] the “Dry weight of shoots” value (Zoysia tenuifolia; [4]) was 0.44 g, the Grass height (Zoysia tenuifolia; [4]) was 3.5 cm and the “Dry weight of stems” value (Zoysia tenuifolia; [4]) was 12.8 g.
